Data taken from ChEMBL document CHEMBL5506004, “Optimizing drug-like properties of selective butyrylcholinesterase inhibitors for cognitive improvement: Enhancing aqueous solubility by disrupting molecular plane” (Eur J Med Chem, 2024).
≈ marks a conversion by molar mass, not a printed value. Calls of active or inactive are those of the source. The calls are words filed in the database; no cut-off is given here.

Assays:
Cholinesterase [1] = target: Cholinesterase (Equus caballus, UniProt P81908); experiment: Inhibition of horse serum BChE using BTC iodide as substrate preincubated for 5 mins followed by substrate addition measured after 2 mins by Ellman's method
Cholinesterase [2] = target: Cholinesterase (Homo sapiens, UniProt P06276); experiment: Inhibition of human BChE using BTC iodide as substrate preincubated for 5 mins followed by substrate addition measured after 2 mins by Ellman's method
[3] = Solubility of compound in FaSSIF incubated for 24 hrs by HPLC analysis; format: ADME
BV-2 [4] = experiment: Cytotoxicity against mouse BV-2 cells assessed as survival rate at 100 uM incubated for 24 hrs by MTT assay relative to control; format: functional; details: read-out: Survival
HT-22 [5] = experiment: Cytotoxicity against mouse HT-22 cells assessed as survival rate at 100 uM incubated for 24 hrs by MTT assay relative to control; format: functional; details: read-out: Survival
PC-12 [6] = experiment: Cytotoxicity against rat PC12 cells assessed as survival rate at 100 uM incubated for 24 hrs by MTT assay relative to control; format: functional; details: read-out: Survival
SH-SY5Y [7] = experiment: Cytotoxicity against human SH-SY5Y cells assessed as survival rate at 100 uM incubated for 24 hrs by MTT assay relative to control; format: functional; details: read-out: Survival
[8] = Cytotoxicity against human L02 cells assessed as survival rate at 100 uM incubated for 24 hrs by MTT assay relative to control; format: toxicity, cell-based; details: read-out: Survival
[9] = Acute toxicity in ICR mouse assessed as animal death at 1 g/kg, IG; details: in vivo, po, 1000 mg/kg
[10] = Acute toxicity in ICR mouse assessed as animal growth at 1 g/kg, IG; details: in vivo, po, 1000 mg/kg
PC-12 [11] = experiment: Neuroprotective activity in rat PC12 cells assessed as cell viability pretreated for 2 hrs followed by H2O2 addition measured after 24 hrs by MTT assay; format: functional, cell-based; details: time 26.0 hrs
SH-SY5Y [12] = experiment: Neuroprotective activity against amyloid beta (1 to 42)-induced neuronal death in human SH-SY5Y cells assessed as cell viability pretreated for 1 hr followed by amyloid beta (1 to 42) addition measured after 24 hrs by MTT assay; format: functional, cell-based; details: dose 1-10 µM, time 25.0 hrs
[13] = Metabolic stability in human liver microsomes assessed as compound metabolism at 2 uM measured for 60 mins by LC-MS/MS analysis; format: ADME, Microsome; details: read-out: Drug metabolism
[14] = Permeability of compound at 50 ug/ml incubated for 18 hrs by PAMPA; format: ADME; details: dose 50 µg/ml, read-out: permeability
[15] = AUC (0 to t) in Sprague-Dawley rat at 10 mg/kg, po measured for 1 to 1440 mins by LC-MS/MS analysis; format: ADME, organism-based; details: in vivo, time 1-1440 min
[16] = AUC (0 to infinity) in Sprague-Dawley rat at 10 mg/kg, po measured for 1 to 1440 mins by LC-MS/MS analysis; format: ADME, organism-based; details: in vivo, time 1-1440 min
[17] = MRT (infinity) in Sprague-Dawley rat at 10 mg/kg, po measured for 1 to 1440 mins by LC-MS/MS analysis; format: ADME, organism-based; details: in vivo, time 1-1440 min
[18] = Half life in Sprague-Dawley rat at 10 mg/kg, po measured for 1 to 1440 mins by LC-MS/MS analysis; format: ADME, organism-based; details: in vivo, time 1-1440 min
[19] = Tmax in Sprague-Dawley rat at 10 mg/kg, po measured for 1 to 1440 mins by LC-MS/MS analysis; format: ADME, organism-based; details: in vivo, time 1-1440 min
[20] = Cmax in Sprague-Dawley rat at 10 mg/kg, po measured for 1 to 1440 mins by LC-MS/MS analysis; format: ADME, organism-based; details: in vivo, po, 10 mg/kg, time 1-1440 min
[21] = Oral bioavailability in Sprague-Dawley rat at 10 mg/kg measured for 1 to 1440 mins by LC-MS/MS analysis; format: ADME, organism-based; details: in vivo, time 1-1440 min
BV-2 [22] = experiment: Cytotoxicity against mouse BV-2 cells assessed as survival rate incubated for 24 hrs by MTT assay; format: functional, cell-based; details: BV-2, 24 h
SH-SY5Y [23] = experiment: Cytotoxicity against human SH-SY5Y cells assessed as survival rate incubated for 24 hrs by MTT assay; format: functional, cell-based
HT-22 [24] = experiment: Neuroprotective activity against glutamate-induced excitotoxicity in mouse HT-22 cells assessed as cell viability at 1 to 10 uM pretreated for 1 hr followed by glutamate addition measured after 24 hrs by MTT assay; format: functional, cell-based; details: dose 1-10 µM, time 25.0 hrs
[25] = Metabolic stability in human liver microsomes assessed as compound remaining at 2 uM measured after 12.8 mins by LC-MS/MS analysis; format: ADME, Microsome; details: read-out: Activity
Mus musculus [26] = experiment: Cognitive enhancing effect in Amyloid beta (1 to 42)-treated ICR mouse assessed as reduction in trajectory uncertainty at 10 mg/kg, po administered daily measured after 7 to 12 days by Morris water maze test; format: functional, organism-based; details: time 7-12 day
Mus musculus [27] = experiment: Cognitive enhancing effect in Amyloid beta (1 to 42)-treated ICR mouse assessed as shorter arrival time at 10 mg/kg, po administered daily measured after 7 to 12 days by Morris water maze test; format: functional, organism-based; details: time 7-12 day

Chain of Cholinesterase (Equus caballus, UniProt P81908) (P81908 whole entry): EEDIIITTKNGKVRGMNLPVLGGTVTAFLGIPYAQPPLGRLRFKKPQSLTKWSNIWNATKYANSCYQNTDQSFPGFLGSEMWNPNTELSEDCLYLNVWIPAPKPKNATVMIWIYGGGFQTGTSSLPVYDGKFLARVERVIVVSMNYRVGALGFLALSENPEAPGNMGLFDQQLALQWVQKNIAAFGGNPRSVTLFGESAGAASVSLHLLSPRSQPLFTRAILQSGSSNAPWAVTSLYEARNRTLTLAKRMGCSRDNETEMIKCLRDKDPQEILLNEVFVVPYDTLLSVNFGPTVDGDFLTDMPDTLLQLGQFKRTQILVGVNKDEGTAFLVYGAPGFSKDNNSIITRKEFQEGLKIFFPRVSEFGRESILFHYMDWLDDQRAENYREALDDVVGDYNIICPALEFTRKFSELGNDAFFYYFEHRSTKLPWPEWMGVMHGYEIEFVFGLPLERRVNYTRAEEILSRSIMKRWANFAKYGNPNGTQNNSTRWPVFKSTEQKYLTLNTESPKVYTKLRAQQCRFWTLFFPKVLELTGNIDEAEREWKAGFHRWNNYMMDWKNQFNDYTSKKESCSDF
Chain of Cholinesterase (Homo sapiens, UniProt P06276) (P06276 whole entry): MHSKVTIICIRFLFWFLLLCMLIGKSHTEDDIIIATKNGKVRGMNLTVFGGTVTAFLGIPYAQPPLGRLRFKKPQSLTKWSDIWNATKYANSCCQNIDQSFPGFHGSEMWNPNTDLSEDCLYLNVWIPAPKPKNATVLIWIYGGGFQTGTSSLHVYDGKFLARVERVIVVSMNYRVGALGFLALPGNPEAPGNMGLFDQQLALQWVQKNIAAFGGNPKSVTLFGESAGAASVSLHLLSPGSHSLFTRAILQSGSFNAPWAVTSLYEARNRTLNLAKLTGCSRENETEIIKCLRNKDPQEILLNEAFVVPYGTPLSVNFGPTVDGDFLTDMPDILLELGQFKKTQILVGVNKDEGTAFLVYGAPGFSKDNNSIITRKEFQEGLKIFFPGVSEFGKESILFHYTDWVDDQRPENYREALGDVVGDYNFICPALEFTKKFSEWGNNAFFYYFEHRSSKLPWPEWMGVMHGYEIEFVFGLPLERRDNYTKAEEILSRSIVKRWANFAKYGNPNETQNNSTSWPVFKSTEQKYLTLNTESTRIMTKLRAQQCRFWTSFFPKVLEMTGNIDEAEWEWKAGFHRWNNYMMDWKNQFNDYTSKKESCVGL

SMILES | IC50 (Cholinesterase [1]) [nM] | solubility at 24 h [3] [µM] | further results
Nc1nonc1-c1nc2ccccc2n1CC(=O)Nc1ccc(CN2CCOCC2)cc1 | 14 | 3050 (≈ 1320 µg/mL) | IC50 (Cholinesterase [2]): 106 nM; viability at 100 µM (BV-2 [4]): 78.2%; viability at 100 µM (HT-22 [5]): 66.5%; viability at 100 µM (PC-12 [6]): 101%; viability at 100 µM (SH-SY5Y [7]): 131%; viability at 24 h, 100 µM [8]: 114%; Activity [9]: Non-Toxic; Activity [10]: Non-Toxic; Activity (PC-12 [11]): Dose-Dependent Effect; Activity (SH-SY5Y [12]): Dose-Dependent Effect; metabolised at 1 h, 2 µM [13]: < 15%; Papp at 18 h, 50 ug/ml [14]: 5.38 ×10⁻⁶ cm/s
Nc1nonc1-c1nc2ccccc2n1CC(=O)Nc1ccncc1 | 172 | 474 (≈ 159 µg/mL) | –
Nc1nonc1-c1nc2ccccc2n1CC(=O)Nc1ccc(C(=O)N2CCOCC2)cc1 | 67 | 467 (≈ 209 µg/mL) | –
COC(=O)c1cncc(NC(=O)Cn2c(-c3nonc3N)nc3ccccc32)c1 | 43 | 211 (≈ 83 µg/mL) | –
N#Cc1cc(Br)cc(NC(=O)Cn2c(-c3nonc3N)nc3ccccc32)c1 | – | 379 (≈ 166 µg/mL) | AUC(0-t) [15]: 3360 ng·h/mL; AUC(0-inf) [16]: 3780 ng·h/mL; MRT inf [17]: 7.37 h; half-life [18]: 4.74 h; Tmax [19]: 0.18 h; Cmax [20]: 975.05 ng/mL; bioavailability [21]: 23.6%
CN1CCN(c2ccccc2NC(=O)Cn2c(-c3nonc3N)nc3ccccc32)CC1 | 524 | 483 (≈ 209 µg/mL) | –
Nc1nonc1-c1nc2ccccc2n1CC(=O)Nc1cncc(C(F)(F)F)c1 | 94.5 | 660 (≈ 266 µg/mL) | –
Nc1nonc1-c1nc2ccccc2n1CC(=O)Nc1cccc(N2CCCC2)c1 | 5.57 | 104 (≈ 42 µg/mL) | IC50 (Cholinesterase [2]): 2.26 nM
Nc1nonc1-c1nc2ccccc2n1CC(=O)Nc1cccc(C(=O)O)c1 | 1970 | ≥ 5290 | –
CN1CCN(C(=O)c2ccc(NC(=O)Cn3c(-c4nonc4N)nc4ccccc43)cc2)CC1 | 84 | 1020 (≈ 471 µg/mL) | –
CN1CCN(C(=O)Cc2cccc(NC(=O)Cn3c(-c4nonc4N)nc4ccccc43)c2)CC1 | 1940 | 1330 (≈ 631 µg/mL) | –
Nc1nonc1-c1nc2ccccc2n1CC(=O)Nc1cccc(CC(=O)N2CCOCC2)c1 | 193 | 728 (≈ 336 µg/mL) | –
Nc1nonc1-c1nc2ccccc2n1CC(=O)Nc1cccc(N2CCOCC2)c1 | 49.5 | 1270 (≈ 534 µg/mL) | –
CN1CCN(c2cccc(NC(=O)Cn3c(-c4nonc4N)nc4ccccc43)c2)CC1 | 19.4 | 2820 (≈ 1220 µg/mL) | IC50 (Cholinesterase [2]): 121 nM; viability at 100 µM (HT-22 [5]): 89.5%; viability at 100 µM (PC-12 [6]): 82.6%; viability at 24 h, 100 µM [8]: 102%; IC50 (BV-2 [22]): 17000 nM; IC50 (SH-SY5Y [23]): 10300 nM; Activity [9]: Non-Toxic; Activity [10]: Non-Toxic; Activity (PC-12 [11]): Dose-Dependent Effect; Activity (HT-22 [24]): Active; metabolised at 1 h, 2 µM [13]: < 15%; Papp at 18 h, 50 ug/ml [14]: 3.57 ×10⁻⁶ cm/s
COC(=O)c1ccnc(NC(=O)Cn2c(-c3nonc3N)nc3ccccc32)c1 | 33.1 | 175 (≈ 68.8 µg/mL) | –
Nc1nonc1-c1nc2ccccc2n1CC(=O)Nc1cncc(Br)c1 | 15.4 | 476 (≈ 197 µg/mL) | IC50 (Cholinesterase [2]): 119 nM
Nc1nonc1-c1nc2ccccc2n1CC(=O)Nc1cccc(N2CCCCC2)c1 | 4.71 | 74.3 (≈ 31 µg/mL) | IC50 (Cholinesterase [2]): 21.2 nM

SMILES | IC50 (Cholinesterase [1]) [nM] | solubility at 24 h [3] [µM] | further results
CN1CCN(C(=O)Cc2ccc(NC(=O)Cn3c(-c4nonc4N)nc4ccccc43)cc2)CC1 | 609 | 1770 (≈ 842 µg/mL) | –
CN1CCN(Cc2ccc(NC(=O)Cn3c(-c4nonc4N)nc4ccccc43)cc2)CC1 | 99.8 | 2660 (≈ 1190 µg/mL) | –
Nc1c2c(nc3ccccc13)CCCC2 [TACRINE] | – | 1440 (≈ 285 µg/mL) | –
C[C@]12CC[C@H]3[C@@H](CCC4=CC(=O)CC[C@@]43C)[C@@H]1CC[C@@H]2O [TESTOSTERONE] | – | – | remaining at 0.2133 h, 2 µM [25]: 50%
Nc1nonc1-c1nc2ccccc2n1CC(=O)Nc1cccnc1 | 154 | 373 (≈ 125 µg/mL) | –
Nc1nonc1-c1nc2ccccc2n1CC(=O)Nc1ccc(N2CCCCC2)cc1 | 168 | 86.2 (≈ 36 µg/mL) | –
Nc1nonc1-c1nc2ccccc2n1CC(=O)NC1CCCCC1 | 3520 | 232 (≈ 79 µg/mL) | –
Nc1nonc1-c1nc2ccccc2n1CC(=O)Nc1ccccc1N1CCOCC1 | 2470 | 536 (≈ 225 µg/mL) | –
COc1cc2c(cc1OC)C(=O)C(CC1CCN(Cc3ccccc3)CC1)C2 (configuration not stated) | – | – | Activity (Mus musculus [26]): Active; Activity (Mus musculus [27]): Active
CN1CCN(c2ccc(NC(=O)Cn3c(-c4nonc4N)nc4ccccc43)cc2)CC1 | 92.3 | 1360 (≈ 588 µg/mL) | –
Nc1nonc1-c1nc2ccccc2n1CC(=O)Nc1cncc(Cl)c1 | 31.6 | 462 (≈ 171 µg/mL) | –
Nc1nonc1-c1nc2ccccc2n1CC(=O)Nc1cnc2ccccc2c1 | – | 231 (≈ 89 µg/mL) | Tmax [19]: 0.158 h
Nc1nonc1-c1nc2ccccc2n1CC(=O)Nc1ccccn1 | 1320 | 322 (≈ 108 µg/mL) | –
Nc1nonc1-c1nc2ccccc2n1CC(=O)Nc1cncc(F)c1 | 99.4 | 512 (≈ 181 µg/mL) | –
Nc1nonc1-c1nc2ccccc2n1CC(=O)Nc1ccc(N2CCOCC2)cc1 | 481 | 861 (≈ 361 µg/mL) | –
Nc1nonc1-c1nc2ccccc2n1CC(=O)Nc1ccc(CC(=O)N2CCOCC2)cc1 | 123 | 951 (≈ 439 µg/mL) | –
